Laboratory results taken from patent publication US20190175560A1, “MEBENDAZOLE CANCER THERAPIES AND METHODS OF USE” (Shepherd Therapeutics, Inc., priority 2017, published 2019).

Columns and labels:
Type in all cases: cell-based
[1] = test system: GIST-1 gastrointestinal stromal tumor cell line; experiment: Synergy of MBZ with small molecule agents (Chou-Talalay CI, Cell Titer Glo); conditions: in combination with MBZ, 72 hour incubation
Protocol: (§1) For in vitro experiments, cells were plated in triplicate and treated with a range of concentrations of MBZ and relevant chemotherapeutic agents in a complete Latin square. Combination indexes (CI) were determined based on the method described by Chou and Talalay (Cancer Res. 2010 Jan. 15; 70(2):440-6. doi: 10.1158/0008-5472.CAN-09-1947. Epub 2010 Jan. 12).
(§2) Cells were plated in triplicate and treated with a range of 5 concentrations of MBZ in combination with 5 concentrations of chemotherapeutic agents in a complete Latin square. Following a 72 hour incubation, cell viability was determined using Cell Titer Glo. The Combination index (CI) was determined based on the method described by Chou and Talalay (2010) with a CI value less than 0.9 indicating synergy.

[2] = test system: CHP-212 neuroblastoma cells; experiment: Synergy of MBZ or HA-PLGA-MBZ with chemotherapeutic agents (Chou-Talalay CI, Cell Titer Glo); conditions: in combination with MBZ; CHP-212; 72 hour incubation
Protocol: (§3) For in vitro experiments, cells were plated in triplicate and treated with a range of concentrations of MBZ and relevant chemotherapeutic agents in a complete Latin square.
(§4) Cells were plated in triplicate and treated with a range of 5 concentrations of MBZ in combination with 5 concentrations of chemotherapeutic agents in a complete Latin square. Following a 72 hour incubation, cell viability was determined using Cell Titer Glo.
(§5) In table 22 below, cells were plated in triplicate and treated with a range of 5 concentrations of MBZ or HA-PLGA-MBZ nanoparticles containing a molar equivalent of MBZ, and 5 concentrations of relevant chemotherapeutic agents in a complete Latin square. Combination indexes (CI) were determined based on the method described by Chou-Talalay with a CI value less than 0.9 indicating synergy. […] Numbers in parentheses represent the range of synergistic CI values for each cell line and drug combination.

[3] = test system: SK-N-AS neuroblastoma cells; experiment: Synergy of MBZ with chemotherapeutic agents (Chou-Talalay CI, Cell Titer Glo); conditions: in combination with MBZ, 72 hour incubation
Protocol: as §2

[4] = test system: SNU16 gastric carcinoma cells; experiment: Synergy of MBZ or HA-PLGA-MBZ with chemotherapeutic agents (Chou-Talalay CI, Cell Titer Glo); conditions: in combination with MBZ; SNU16; 72 hour incubation
Protocol: as §3, §4, §5

JU77 mesothelioma cells = experiment: Synergy of MBZ with chemotherapeutic agents (Chou-Talalay CI, Cell Titer Glo); conditions: in combination with MBZ, 72 hour incubation
Protocol: as §3, §2

[5] = test system: Flo-1 esophageal carcinoma cells; experiment: as above; conditions: in combination with MBZ, 72 hour incubation
Protocol: as §3, §4

[6] = test system: Kato-III gastric carcinoma cells; experiment: as above; conditions: in combination with MBZ, 72 hour incubation
Protocol: as §3, §4

[7] = test system: COV362 ovarian carcinoma cells; experiment: as above; conditions: in combination with MBZ, 72 hour incubation
Protocol: as §3, §4

[8] = test system: TOV-112D ovarian carcinoma cells; experiment: as above; conditions: in combination with MBZ, 72 hour incubation
Protocol: as §3, §2

[9] = test system: MSTO-211H mesothelioma cells; experiment: as above; conditions: in combination with MBZ, 72 hour incubation
Protocol: as §3, §2

[10] = test system: OE-33 esophageal carcinoma cells; experiment: as above; conditions: in combination with MBZ, 72 hour incubation
Protocol: as §3, §4

LO68 mesothelioma cells = experiment: as above; conditions: in combination with MBZ, 72 hour incubation
Protocol: as §3, §2

[11] = test system: STC-1 carcinoid tumor cell line; experiment: as above; conditions: in combination with MBZ, 72 hour incubation
Protocol: as §3, §2

[12] = test system: BxPC-3 pancreatic carcinoma cells; experiment: as above; conditions: in combination with MBZ, 72 hour incubation
Protocol: as §3, §4

[13] = test system: SW13 adrenocortical carcinoma cells; experiment: as above; conditions: in combination with MBZ, 72 hour incubation
Protocol: as §2

[14] = test system: CCC-5 cholangiocarcinoma cells; experiment: as above; conditions: in combination with MBZ, 72 hour incubation
Protocol: as §3, §4

[15] = test system: TFK-1 cholangiocarcinoma cells; experiment: as above; conditions: in combination with MBZ, 72 hour incubation
Protocol: as §1, §2

[16] = test system: Hs766t pancreatic carcinoma cells; experiment: as above; conditions: in combination with MBZ, 72 hour incubation
Protocol: as §2

[17] = test system: SW-1271 small cell lung carcinoma cells; experiment: as above; conditions: in combination with MBZ, 72 hour incubation
Protocol: as §3, §2

[18] = test system: H295R adrenocortical carcinoma cells; experiment: as above; conditions: in combination with MBZ, 72 hour incubation
Protocol: as §1, §2

[19] = test system: DMS-114 small cell lung carcinoma cells; experiment: as above; conditions: in combination with MBZ, 72 hour incubation
Protocol: as §1, §2

[20] = test system: SK-UT-1B leiomyosarcoma cells; experiment: as above; conditions: in combination with MBZ, 72 hour incubation
Protocol: as §1, §2

[21] = test system: SK-LMS-1 leiomyosarcoma cells; experiment: as above; conditions: in combination with MBZ, 72 hour incubation
Protocol: as §2

[22] = test system: SK-UT-1 leiomyosarcoma cells; experiment: as above; conditions: in combination with MBZ, 72 hour incubation
Protocol: as §2

[23] = test system: Colo-205 colorectal carcinoma cells; experiment: as above; conditions: in combination with MBZ, 72 hour incubation
Protocol: as §3, §4

[24] = test system: HCT116 colorectal carcinoma cells; experiment: as above; conditions: in combination with MBZ, 72 hour incubation
Protocol: as §3, §4

[25] = test system: HepG2 hepatocellular carcinoma cells; experiment: as above; conditions: in combination with MBZ, 72 hour incubation
Protocol: as §3, §4

[26] = test system: HepG2-C3A hepatocellular carcinoma cells; experiment: as above; conditions: in combination with MBZ, 72 hour incubation
Protocol: as §3, §2

CCN1CCN(Cc2ccc(Nc3ncc(F)c(-c4cc(F)c5nc(C)n(C(C)C)c5c4)n3)nc2)CC1 [Abemaciclib]
CI range for the concentration pairings [1]: 0.390-0.701

N.N.O=C([O-])C1(C(=O)[O-])CCC1.[Pt+2] [Carboplatin]
CI range for the concentration pairings [2]: 0.587-0.876
CI range for the concentration pairings [3]: 0.433-0.891
CI range for the concentration pairings [4]: 0.409-0.783
CI range for the concentration pairings (JU77 mesothelioma cells): 0.539-0.841
CI range for the concentration pairings [5]: 0.063-0.603
synergy with MBZ (Yes/No) [6]: No
CI range for the concentration pairings [7]: 0.553-0.860
CI range for the concentration pairings [8]: 0.506-0.845
synergy with MBZ (Yes/No) [9]: No
CI range for the concentration pairings [10]: 0.542-0.636
CI range for the concentration pairings (LO68 mesothelioma cells): 0.574-0.865

N.N.[Cl][Pt][Cl] [Cisplatin]
CI range for the concentration pairings [11]: 0.441-0.785
CI range for the concentration pairings [12]: 0.469-0.762
CI range for the concentration pairings [2]: 0.653-0.896
CI range for the concentration pairings [3]: 0.141-0.746
CI range for the concentration pairings [13]: 0.410-0.883
CI range for the concentration pairings [7]: 0.578-0.878
CI range for the concentration pairings [14]: 0.121-0.716
CI range for the concentration pairings [15]: 0.405-0.877
CI range for the concentration pairings [16]: 0.658-0.847
CI range for the concentration pairings [17]: 0.275-0.763
CI range for the concentration pairings [8]: 0.497-0.860
CI range for the concentration pairings [18]: 0.544-0.771
CI range for the concentration pairings [19]: 0.223-0.837

COc1cccc2c1C(=O)c1c(O)c3c(c(O)c1C2=O)C[C@@](O)(C(=O)CO)C[C@@H]3O[C@H]1C[C@H](N)[C@H](O)[C@H](C)O1 [Doxorubicin]
CI range for the concentration pairings [11]: 0.419-0.829
CI range for the concentration pairings [20]: 0.716-0.887
CI range for the concentration pairings [21]: 0.514-0.872
CI range for the concentration pairings [2]: 0.646-0.883
CI range for the concentration pairings [3]: 0.267-0.849
CI range for the concentration pairings (JU77 mesothelioma cells): 0.458-0.820
synergy with MBZ (Yes/No) [22]: No
CI range for the concentration pairings [13]: 0.771-0.850
CI range for the concentration pairings [9]: 0.288-0.700
synergy with MBZ (Yes/No) [18]: No
CI range for the concentration pairings (LO68 mesothelioma cells): 0.433-0.875

COc1cc([C@@H]2c3cc4c(cc3[C@@H](O[C@@H]3O[C@@H]5CO[C@@H](C)O[C@H]5[C@H](O)[C@H]3O)[C@H]3COC(=O)[C@H]23)OCO4)cc(OC)c1O [Etoposide]
CI range for the concentration pairings [11]: 0.253-0.893
CI range for the concentration pairings [2]: 0.647-0.891
CI range for the concentration pairings [23]: 0.293-0.707
CI range for the concentration pairings [13]: 0.618-0.710
CI range for the concentration pairings [17]: 0.535-0.899
CI range for the concentration pairings [24]: 0.607-0.890
CI range for the concentration pairings [19]: 0.551-0.832

Nc1ccn([C@@H]2O[C@H](CO)[C@@H](O)C2(F)F)c(=O)n1 [Gemcitabine]
CI range for the concentration pairings [25]: 0.012-0.796
synergy with MBZ (Yes/No) [26]: No
CI range for the concentration pairings [20]: 0.410-0.893
CI range for the concentration pairings [21]: 0.418-0.861
CI range for the concentration pairings [12]: 0.502-0.770
CI range for the concentration pairings (JU77 mesothelioma cells): 0.362-0.712
CI range for the concentration pairings [22]: 0.385-0.802
CI range for the concentration pairings [14]: 0.394-0.855
synergy with MBZ (Yes/No) [15]: No
CI range for the concentration pairings [16]: 0.149-0.874
CI range for the concentration pairings [9]: 0.086-0.796
CI range for the concentration pairings (LO68 mesothelioma cells): 0.525-0.845

Cc1ccc(NC(=O)c2ccc(CN3CCN(C)CC3)cc2)cc1Nc1nccc(-c2cccnc2)n1 [Imatinib]
CI range for the concentration pairings [1]: 0.627-0.875

O=C1[O][Pt]2([NH][C@@H]3CCCC[C@H]3[NH]2)[O]C1=O [Oxaliplatin]
CI range for the concentration pairings [25]: 0.036-0.834
CI range for the concentration pairings [12]: 0.455-0.758
CI range for the concentration pairings [4]: 0.571-0.883
CI range for the concentration pairings [5]: 0.355-0.875
CI range for the concentration pairings [6]: 0.587-0.897
CI range for the concentration pairings [14]: 0.060-0.631
CI range for the concentration pairings [24]: 0.493-0.728
CI range for the concentration pairings [10]: 0.395-0.597
